Results reported in article doi:10.1101/2025.04.10.648262, “Time-resolved phenotyping at subcellular resolution reveals shared principles and key trade-offs across antimicrobial peptide activities” (bioRxiv, 2026).
Where two headings read alike, the source gives them in different places. Bridge positions count the residues as written; N and C are the ends. Ends that are not written are not given here.

Key:
Assay type in all cases: cell-based, Escherichia coli
[1] = system: E. coli ATCC 25922
Method: Strain ATCC 25922GFP (ATCC, Virginia, USA), which carries a GFP-expressing plasmid, was selected for biofilm experiments. The strain’s ability to form biofilms was first verified at 37°C using Congo Red staining on agar plate containing M9gluCAAT. Congo Red dye binds curli, a major component of the biofilm extracellular matrix. Strain ATCC 25922 (lacking the GFP-expressing plasmid) was used for MIC determination (to avoid interference from the presence of ampicillin required to maintain the plasmid) following the standard growth protocol described above.
(§1) To determine the minimal inhibitory concentration (MIC) of the selected AMPs against either MG1655 or ATCC 25922 E. coli strains, exponentially growing cells were diluted in fresh medium to an OD = 10^−6 (~500 cells/mL) and mixed 50:50 with titrated AMP concentrations (which were chosen to be over a range that included the MIC) in a 96-well plate (flat bottom with low evaporation lid, 3595, Corning, Arizona, USA). A final OD of 5 × 10^−7 corresponds to ~250 cells/mL. OD curves were sampled every 5 min for a total of 48 h using a microplate reader (BioTek Synergy 2, Agilent Technologies Inc., California, USA). Raw data were exported as a text file and analysed using a custom-written Python script (microplate_reader_analysis.py). To measure maximum growth rates, the log(OD) was fitted using a linear regression over a 12-point moving window (60 min), which provides the instantaneous growth rate (log(OD)/h), from which the global maximum was computed. The MIC was defined as the minimum AMP concentration for which the maximum growth rate was < 0.2 log(OD)/h within the first 20 h of incubation. Each MIC experiment was performed independently at least three times (with at least two technical replicates each), and the mode across all replicates was taken as the final MIC; in the rare cases of a tie, an additional replicate was performed, which was sufficient to resolve it.

[2] = system: E. coli (MG1655); conditions: MG1655, 20 h
Method: For all experiments and E. coli strains, cells were grown in a medium (M9gluCAAT) with M9 salts (33.7 mM Na2HPO4, 22mM KH2PO4, 8.55 mM NaCl, 9.35 mM NH4Cl), 0.2% (w/v) glucose, 0.4% (w/v) casamino acids, 1 mM MgSO4, 0.3 mM CaCl2, 1 μg/mL thiamine, and trace elements (13.4 mM ethylene-diamine-tetra-acetic-acid (EDTA), 3.1 mM FeCl3-6H2O, 0.62 mM ZnCl2, 76 μM CuCl2-2H2O, 42 μM CoCl2-2H2O, 162 μM H3BO3, 8.1 μM MnCl2-4H2O). Prior to every experiment, cells were first inoculated into M9gluCAAT and grown to stationary phase at 37°C. For all assays except the biofilm experiments, the culture was diluted to 1/10,000 or more in fresh medium and grown at 37°C until it reached an optical density at 600 nm (OD) of 0.2–0.4. For the biofilm experiments, cells were grown in M9gluCAAT supplemented with 100 μg/mL ampicillin to maintain the GFP-expressing plasmid. The overnight stationary-phase cultures were then diluted into the same medium to an OD of 0.015. See below for details on biofilm growth.
Except for the biofilm experiments, the strains used in this study were derived from MG1655 (ATCC 47076), which was used to estimate the minimum inhibitory concentration (MIC) for all the studied peptides (or peptoids) using a microplate reader (Figure 1A). To detect the timing of outer and inner membrane permeabilization to proteins, strain CJW7845 was constructed to carry two freely diffusing fluorescent proteins: mScarlet-I in the periplasm and mTagBFP2 in the cytoplasm. Construction of CJW7845 was done by transforming pBAD-mTagBFP2 plasmid (Addgene #34632, a gift from Vladislav Verkhusha; ([Subach et al., 2011])) into an E. coli strain expressing a periplasmic mScarlet-I reporter ([Cañas-Duarte 2021]), as previously described ([Chung et al., 1989]). Transformants were restreaked on fresh selection plates and confirmed via microscopy.
as §1

[3] = system: E. coli strain (CJW7845); assay: Time-lapse single-cell phenotyping of inner/outer membrane permeabilization to proteins and growth arrest in microwells; set-up: key to Class (timing of growth arrest relative to IM permeabilization to proteins): Class I AMPs and PMs cause growth arrest predominantly associated with inner membrane (IM) permeabilization; class II compounds inhibit growth without substantial IM permeabilization; conditions: for OM-permeabilized cells among IM-permeabilized cells: CJW7845, during the experiment
Method: For experiments with PDMS microwells, cells were allowed to grow for ~30 min in the temperature-controlled enclosure prior to imaging. A 10X concentrated AMP solution was spiked in (at 1/10 the volume of the well) and mixed well by pipetting after ~20 min from the start of the image acquisition, without interrupting the timelapse sequence. When the uptake of SYTOX Green was monitored, SYTOX Green was included in the AMP solution and spiked in during the experiment to obtain a final concentration of SYTOX Green of 50 nM in the well. This allowed us to monitor healthy cell growth prior to AMP treatment, to rapidly set the desired AMP (or SYTOX Green) concentration from one frame to the next (unlike for flow-controlled injection systems), and to resolve the AMP-induced phenotype in real time. The current design allows for testing up to four independent conditions in parallel.
To analyse the single-cell experiments in microwells, OmniSegger software (https://github.com/tlo-bot/omnisegger), which combines SuperSegger MATLAB-based suite ([Stylianidou et al., 2016]) for cell analysis with Omnipose segmentation ([Cutler et al., 2022]), was used to first process the microscopy images by performing drift correction, cell segmentation, and cell linking. Given that AMP-treated cells can display extreme phenotypes, such as exceedingly bright and/or heterogeneous phase contrast signal (likely a result of the widely changing intracellular density upon AMP treatment) and that the software’s pre-trained model bact_phase_omni ([Cutler et al, 2022]) tended to split cells before cell division was completed, a new Omnipose model was trained from scratch starting from bact_phase_omni-generated masks that were further corrected and curated using custom-made Python scripts (screening_good_bad.py and generate_training_dataset.py). Details on the Omnipose model retraining can be found in a previous publication ([Thappeta et al., 2025]). The final model (omnipose_phase_microwells_model) and corresponding training datasets are available at https://github.com/JacobsWagnerLab/published/tree/master/Fragasso_et_al_2025 and BioImage Archive (accession number: S-BIAD1823), respectively.
MATLAB files of the linked cell trajectories output from OmniSegger were then imported, background subtracted using background_subtraction.py, which was adapted from a previous study ([Papagiannakis et al., 2025]), and converted to Python data structures (import_processing_code.py), from which cell features such as cell area, nucleoid area, mean fluorescence intensity, etc., were extracted for each cell at each frame. The exported dataframes were further processed to estimate instantaneous growth rates and were run through a series of functions to perform curation based on cell areas and instantaneous growth rates over time (post_processing_curation_functions.py). […] Represented data points were pooled from multiple replicates.
Analysis of strain CJW7845 proceeded by extracting the timings of permeabilization of the outer and inner membranes based on the mean fluorescence intensities of mScarlet-I and/or mTagBFP2 fluorescent proteins (using function get_permeabilization_time.py), cell growth arrest, and the initiation time of growth inhibition. To obtain accurate timings underlying membrane permeabilization events, information from both the signal intensity itself as well as its derivative were combined, which enabled us to accurately resolve the relevant changes in fluorescent protein signal beyond the intrinsic high-frequency noise and low-frequency photobleaching. Inner membrane permeabilization to proteins can result in two possible phenotypes when simultaneously monitoring freely diffusing periplasmic and cytoplasmic probes, depending on which membrane (outer or inner) becomes permeabilized first. When the outer membrane is first permeabilized, mScarlet-I signal is lost first, followed by mTagBFP2 when the inner membrane becomes also permeabilized. […]

[4] = 2X MIC, CJW7845, M9gluCAAT, 37°C, time-lapse microscopy

MIC (mode MIC) ([1]; ATCC 25922, 20 h)	MIC (mode MIC) [2]	Molecule	further results
0.5 µM	0.5 µM	KWKLFKKIEKVGQNIRDGIIKAGPAVAVVGQATQIAK-NH2 [CecA, cecropin A]	
1 µM	2 µM	RRRPRPPYLPRPRPPPFFPPRLPPRIPPGFPPRFPPRFP-NH2 [PR-39]	
1 µM	1 µM	RRIRFRPPYLPRPGRRPRFPPPFPIPRIPRIP [Tur1A]	
0.6 µM	0.6 µM	RRIRPRPPRLPRPRPRPLPFPRPGPRPIPRPLPFP [Bac7, bactenecin-7]	

The next lines start with the molecule.

Molecule	MIC (mode MIC) ([1]; ATCC 25922, 20 h)	MIC (mode MIC) [2]	further results
GIINTLQKYYCRVRGGRCAVLSCLPKEEQIGKCSTRGRKCCRRKK (disulfide 11-40, 18-33, 23-41 (inferred)) [HBD-3, human β-defensin 3]		20 µM	Class (timing of growth arrest relative to IM permeabilization to proteins) [3, 4]: I; Type (relative timing of OM and IM permeabilization) [3, 4]: B (type B AMPs and PMs permeabilize the IM well before (>10 min) the OM); OM-permeabilized cells among IM-permeabilized cells ([3]; 2X MIC): 7/82
CC(C)C[C@H](NC(=O)[C@H](CCCNC(=N)N)NC(=O)CNC(=O)CNC(=O)[C@@H](N)CCCNC(=N)N)C(=O)N[C@H]1CSSC[C@@H](C(=O)N[C@H](C(=O)NCC(=O)N[C@@H](CCCNC(=N)N)C(N)=O)C(C)C)NC(=O)[C@H](C(C)C)NC(=O)[C@@H]2CSSC[C@H](NC(=O)[C@H](Cc3ccc(O)cc3)NC1=O)C(=O)N[C@@H](CCCNC(=N)N)C(=O)N[C@@H](CCCNC(=N)N)C(=O)N[C@@H](CCCNC(=N)N)C(=O)N[C@@H](Cc1ccccc1)C(=O)N2 [PG-1, protegrin-1]			Class (timing of growth arrest relative to IM permeabilization to proteins) [3, 4]: I; OM-permeabilized cells among IM-permeabilized cells ([3]; 2X MIC): 163/163; OM-permeabilized cells (out of all IM-permeabilized cells) ([3]; 10X MIC, CJW7845): 48/59
CC[C@H](C)[C@H](N)C(=O)N[C@@H](CC(C)C)C(=O)N1CCC[C@H]1C(=O)N[C@@H](Cc1c[nH]c2ccccc12)C(=O)N[C@@H](CCCCN)C(=O)N[C@@H](Cc1c[nH]c2ccccc12)C(=O)N1CCC[C@H]1C(=O)N[C@@H](Cc1c[nH]c2ccccc12)C(=O)N[C@@H](Cc1c[nH]c2ccccc12)C(=O)N1CCC[C@H]1C(=O)N[C@@H](Cc1c[nH]c2ccccc12)C(=O)N[C@@H](CCCNC(=N)N)C(=O)N[C@@H](CCCNC(=N)N)C(N)=O [Indo, indolicidin]		12.5 µM	MIC (mode MIC) ([1]; E. coli ATCC 25922, M9gluCAAT, 37°C, 20 h, mode across four biological replicates): 6.2 µM
